# According to ChEMBL document CHEMBL2311451, “Discovery of a selective M₄ positive allosteric modulator based on the 3-amino-thieno[2,3-b]pyridine-2-carboxamide scaffold: development of ML253, a potent and brain penetrant compound that is active in a preclinical model of schizophrenia” (Bioorg Med Chem Lett, 2013):
# Key:
# [1] = target: T1, Muscarinic acetylcholine receptor M4 (Homo sapiens) (UniProt P08173); test: Positive allosteric modulation of human muscarinic M4 receptor expressed in CHO-K1 cells assessed as leftward shift in acetylcholine response treated for 144 secs prior to acetylcholine addition measured for 5 mins by Fluo-4-AM based calcium mobilization assay relative to control; type: functional, cell-based
# T1 sequence (whole entry): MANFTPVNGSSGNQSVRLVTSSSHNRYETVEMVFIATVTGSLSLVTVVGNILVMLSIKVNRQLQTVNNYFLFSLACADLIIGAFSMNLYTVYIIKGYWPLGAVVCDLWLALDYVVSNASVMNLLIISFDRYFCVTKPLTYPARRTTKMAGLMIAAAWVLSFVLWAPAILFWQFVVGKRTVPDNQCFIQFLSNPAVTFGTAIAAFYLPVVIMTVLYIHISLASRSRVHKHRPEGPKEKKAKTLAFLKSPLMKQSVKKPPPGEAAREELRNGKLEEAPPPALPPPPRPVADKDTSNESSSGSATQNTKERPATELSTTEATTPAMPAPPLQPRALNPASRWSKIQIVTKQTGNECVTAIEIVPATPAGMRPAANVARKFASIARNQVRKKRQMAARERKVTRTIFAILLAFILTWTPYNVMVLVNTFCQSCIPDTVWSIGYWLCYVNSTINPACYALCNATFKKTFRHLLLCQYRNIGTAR
# [2] = target: T2, Muscarinic acetylcholine receptor M4 (Homo sapiens, UniProt P08173); test: Positive allosteric modulation of human muscarinic M4 receptor expressed in CHO-K1 cells assessed as leftward shift in acetylcholine response treated for 144 secs prior to acetylcholine addition measured for 5 mins by Fluo-4-AM based calcium mobilization assay; type: functional, cell-based
# T2 sequence (P08173 whole entry): T1 sequence (whole entry)
%max [1] [%],EC50 ([2]; read-out: EC50) [nM],EC50 ([2]; read-out: pEC50 (converted)) [nM],Structure (SMILES)
41.4,226,–,Cc1nc2sc(C(=O)NC3CCCCC3)c(N)c2c(C)c1Cl
68.3,307,–,Cc1nc2sc(C(=O)NC(C)(C)C)c(N)c2c(C)c1Cl
–,–,> 30200,Cc1nc2sc(C(=O)NCCc3cccnc3)c(N)c2c(C)c1Cl
74.5,128,–,Cc1nc2sc(C(=O)NCCc3ccncc3)c(N)c2c(C)c1Cl
32.4,160,–,Cc1nc2sc(C(=O)NCc3ccccc3Cl)c(N)c2c(C)c1Cl
79.5,124,–,Cc1nc2sc(C(=O)NCc3cccc(F)c3F)c(N)c2c(C)c1Cl
74.1,356,–,Cc1nc2sc(C(=O)NCc3ccccn3)c(N)c2c(C)c1Cl
84.9,208,–,Cc1nc2sc(C(=O)NCc3cccnc3)c(N)c2c(C)c1Cl
78.6,289,–,Cc1nc2sc(C(=O)NC3CCOCC3)c(N)c2c(C)c1Cl
69.9,2010,–,Cc1nc2sc(C(=O)NC3COC3)c(N)c2c(C)c1Cl
61.7,844,–,Cc1nc2sc(C(=O)NCCc3ccccn3)c(N)c2c(C)c1Cl
30.7,> 10000,–,COc1ccc(NC(=O)c2sc3nc(C)c(Cl)c(C)c3c2N)cc1
46.8,104,–,Cc1ccc(CNC(=O)c2sc3nc(C)c(Cl)c(C)c3c2N)cc1
51.1,1370,–,Cc1nc2sc(C(=O)NC(C)c3ccccn3)c(N)c2c(C)c1Cl (configuration not stated)
81,108,–,Cc1nc2sc(C(=O)NCc3ccccc3)c(N)c2c(C)c1Cl
42,160,–,Cc1nc2sc(C(=O)NCc3ccc(F)c(F)c3)c(N)c2c(C)c1Cl
64.1,600,–,Cc1nc2sc(C(=O)NC(C)c3ccncc3)c(N)c2c(C)c1Cl (configuration not stated)
33.6,1750,–,Cc1nc2sc(C(=O)NCc3ccc(C(F)(F)F)cc3)c(N)c2c(C)c1Cl
83.1,294,–,Cc1nc2sc(C(=O)NCc3cnccn3)c(N)c2c(C)c1Cl
